Laboratory results from patent publication US20020045595A1, “N6 heterocyclic 8-modified adenosine derivatives” (priority 1999, published 2002).

Assays:
A1 receptor = molecular target: T1, A1 receptor (Sus scrofa, UniProt I3LEN5); assay: Competitive binding assay, pig striatum membranes, [3H]CPX; settings: pig striatum membrane prep, antagonist [3H]CPX 2 nM
T1 sequence (I3LEN5 1-326): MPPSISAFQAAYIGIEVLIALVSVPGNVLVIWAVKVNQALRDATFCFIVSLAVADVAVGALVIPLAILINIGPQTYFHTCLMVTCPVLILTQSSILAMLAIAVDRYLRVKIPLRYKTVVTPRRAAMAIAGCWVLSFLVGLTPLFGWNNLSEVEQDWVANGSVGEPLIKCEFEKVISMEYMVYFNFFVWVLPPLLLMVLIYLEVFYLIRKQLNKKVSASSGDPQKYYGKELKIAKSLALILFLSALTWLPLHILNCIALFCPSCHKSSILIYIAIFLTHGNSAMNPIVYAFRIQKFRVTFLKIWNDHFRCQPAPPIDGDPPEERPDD
Procedure: Pig striatum were prepared by homogenation in 50 mM Tris buffer ( 5x volume of tissue mass pH=7.4). After centrifugation at 19,000 rpm for 25 minutes at 4° C., the supernatant was discarded, and the process was repeated twice. Compositions of this invention were assayed to determine their affinity for the A1 receptor in a pig striatum membrane prep or a DDT1 membrane prep. Briefly, 0.2 mg of pig striatal membranes or DDT1 cell membranes were treated with adenosine deaminase and 50 mM Tris buffer (pH=7.4) followed by mixing. To the pig membranes was added 2 μL of serially diluted DMSO stock solution of the compounds of this invention at concentrations ranging from 100 microM to 10 nM. The control received 2 microL of DMSO alone, then the antagonist [^3H] 8-cyclopentylxanthine (CPX) for pig striatum or the agonist [3H] 2-chloro-6-cyclopentyladenosine (CCPA) for DDT1 membranes in Tris buffer (50 mM, pH of 7.4) was added to achieve a final concentration of 2 nM. After bation at 23 C. for 2 h, then the solutions were filtered using a membrane harvester using iple washing of the membranes (3 x). The filter disks were counted in scintillation cocktail rding the amount of displacement of tritiated CPX or by the competitive binding ositions of this invention. Greater than a 5 point curve was used to generate Ki's and the er of experiments is indicated in the column marked in Table 1, below: […]

[1] = system: A1 adenosine receptor (DDT1 cells); assay: cAMP assay (SPA) in DDT1 cells with forskolin; type: cell-based, hamster; settings: 5 μM forskolin; for cAMP: rolipram 50 μM, normalized to the full agonist CPA
Procedure: (§1) DDT cells (hamster vas deferens smooth muscle cell line) were grown as monolayers in petri dishes using Dulbecco's Modified Eagle's Medium (DMEM) containing 2.5 μg ml^−1 amphotericin B, 100 U ml^−1 penicillin G, 0.1 mg ml^−1 streptomycin sulfate and 5% fetal bovine serum in a humidified atmosphere of 95% air and 5% CO2. Cells were subcultured twice weekly by dispersion in Hank's Balanced Salt Solution (HBSS) without the divalent cations and containing 1 mM EDTA. The cells were then seeded in growth medium at a density of […] per plate and experiments were performed 4 days later at approximately one day preconfluence.
A scintillation proximity assay (SPA) using rabbit antibodies directed at cAMP using an added tracer of adenosine 3′,5′-cyclic phosphoric acid 2′-O-succinyl-3-[^125I] iodotyrosine methyl ester and fluoromicrospheres containing anti-rabbit specific antibodies as described by Amersham Pharmacia Biotech (Biotrak cellular communication assays). Briefly, DDT1 cells were cultured in clear bottomed 96 well microtiter plates with opaque wells at concentrations between 10^4 to 10^6 cells per well in 40 μl of HBSS at 37° C. (5% CO2 and 95% humidity). The partial or full A1 agonists (5 μl )of this invention were incubated at various concentrations with the DDT1 cells in the presence of rolipram (50 μM), and 5 μM forskolin for 10 min at 37° C. The cells were immediately lysed by treatment 5 μl of 10% dodecyltrimethylammonium bromide followed by shaking using microplate shaker. After incubation of the plate for 5 minutes, an immunoreagent solution (150 μl containing equal volumes of tracer, antiserum, and SPA fluorospheres) was added to each well followed by sealing the plate. After 15-20 h at 23° C., the amount of bound [^125I] cAMP to the fluoromicrospheres was determined by counting in a microtitre plate scintillation counter for 2 minutes. Comparison of counts with standard curves generated for cAMP using a similar protocol afforded the cAMP present after cell lysis.

A1 AdoR = molecular target: T2, A1 AdoR (Mesocricetus auratus, UniProt A0A1U8BVR4); assay: A1-agonist stimulated [35S]GTPγS binding assay, DDT1 membranes; type: biochemical, hamster; settings: [35S]GTPγS binding normalized to the full agonist CPA
T2 construct: endogenous in cells; host or cells: DDT1 (DDT) hamster vas deferens smooth muscle cells, membrane preparation
T2 sequence (A0A1U8BVR4 1-326): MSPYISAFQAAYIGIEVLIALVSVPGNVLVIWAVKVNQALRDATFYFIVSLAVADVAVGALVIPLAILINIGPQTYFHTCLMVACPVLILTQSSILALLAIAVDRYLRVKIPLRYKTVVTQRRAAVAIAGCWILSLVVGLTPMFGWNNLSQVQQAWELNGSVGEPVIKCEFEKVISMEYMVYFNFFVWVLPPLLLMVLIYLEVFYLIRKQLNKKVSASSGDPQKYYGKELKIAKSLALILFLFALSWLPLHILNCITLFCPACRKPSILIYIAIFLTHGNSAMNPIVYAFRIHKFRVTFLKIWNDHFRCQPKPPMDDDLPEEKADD
Procedure: as §1
Attached cells were washed twice with HBSS (2×10 ml), scraped free of the plate with the aid of a rubber policeman in 5 ml of 50 mM Tris-HCl buffer pH 7.4 at 4° C. and the suspension homogenized for 10 s. The suspension was then centrifuged at 27,000 x g for 10 min. The pellet was resuspended in homogenization buffer by vortexing and centrifuged as described above. The final pellet was resuspended in 1 vol of 50 mM Tris-HCl buffer pH 7.4 containing 5 mM MgCl2 for A1 AdoR assays. For the [^35S]GTPγS binding assay the final pellet was resuspended in 50 mM Tris-HCl pH 7.4 containing 5 mM MgCl2, 100 mM NaCl and 1 mM dithiothreitol. This membrane suspension was then placed in liquid nitrogen for 10 min, thawed and used for assays. The protein content was determined with a Bradford™ Assay Kit using bovine serum albumin as standard.
A1-agonist stimulated [^35S] GTPγS binding was determined by a modification of the method described by Giersckik et al. (1991) and Lorenzen et al. (1993). […] Nonspecific binding was determined by the addition of 10 μM GTPγS. […] Previous reports have shown that agonist stimulated [^35S]GTPγS binding was dependent on the presence of GDP (Gierschik et al., 1991; Lorenzen et al., 1993; Traynor & Nahorski, 1995). […] In saturation experiments, 0.5 nM [^35S]GTPγS was incubated with 0.5-1000 nM GTPγS. At the end of the incubation, each suspension was filtered and the retained radioactivity determined as described above.

| Structure (SMILES) | Ki (A1 receptor) [nM] | GIPγS (A1 AdoR) [%] | forskolin induced cAMP generation [1] | cAMP [1] [%] |
| --- | --- | --- | --- | --- |
| OC[C@H]1O[C@@H](n2c(NCc3ccccc3)nc3c(N[C@@H]4CCOC4)ncnc32)[C@H](O)[C@@H]1O [Compound 10, 2-{6-[((3 R)oxolan-3-yl)amino]-8-[benzylamino]purin-9-yl}(4 S,2 R,3 R,5 R)-5-(hydroxymethyl)oxolane-3,4-diol] | 7470 | – | – | – |
| CCCCNc1nc2c(N[C@@H]3CCOC3)ncnc2n1[C@@H]1O[C@H](CO)[C@@H](O)[C@H]1O [Compound 9, 2-{6-[((3 R)oxolan-3-yl)amino]-8-(butylamino)purin-9-yl}(4S,2 R,3 R,5 R)-5-(hydroxymethyl)oxolane-3,4-diol] | 2840 | – | – | – |
| OC[C@H]1O[C@@H](n2cnc3c(NC4CCCC4)ncnc32)[C@H](O)[C@@H]1O [CPA, N-6-cyclopentyladenosine, reference compound] | – | – | back to basal levels | 100 |
| C=CCNc1nc2c(N[C@@H]3CCOC3)ncnc2n1[C@@H]1O[C@H](CO)[C@@H](O)[C@H]1O [Compound 12, 2-{6-[((3 R)oxolan-3-yl)amino]-8-(prop-2-enylamino)purin-9-yl}(4 S,2 R,3 R,5 R)-5-(hydroxymethyl)oxolane-3,4-diol] | – | 77 | – | 42 |
| CCCNc1nc2c(N[C@@H]3CCOC3)ncnc2n1[C@@H]1O[C@H](CO)[C@@H](O)[C@H]1O [Compound 8, 2-{6-[((3 R)oxolan-3-yl)amino]-8-(propylamino)purin-9-yl}(4 S,2 R,3 R,5 R)-5-(hydroxymethyl)oxolane-3,4-diol] | 1040 | – | – | – |

More lines, main results first:

| Ki (A1 receptor) [nM] | GIPγS (A1 AdoR) [%] | Structure (SMILES) | forskolin induced cAMP generation [1] | cAMP [1] [%] |
| --- | --- | --- | --- | --- |
| 799 | – | CNc1nc2c(NC3CCOC3)ncnc2n1C1OC(CO)C(O)C1O (stereo not drawn) [Compound 7] | – | – |
| – | 68 | CC(C)Nc1nc2c(N[C@@H]3CCOC3)ncnc2n1[C@@H]1O[C@H](CO)[C@@H](O)[C@H]1O [Compound 11, 2-{6-[((3 R)oxolan-3-yl)amino]-8-[(methylethyl)amino]purin-9-yl}(4 S,2 R,3 R,5 R)-5-(hydroxymethyl)oxolane-3,4-diol] | – | 37 |
| 137 | 89 | CCNc1nc2c(N[C@@H]3CCOC3)ncnc2n1[C@@H]1O[C@H](CO)[C@@H](O)[C@H]1O [Compound 5, 2-{6-[((3 R)oxolan-3-yl)amino]-8-(ethylamino)purin-9-yl}(4 S,2 R,3 R,5 R)-5-(hydroxymethyl)oxolane-3,4-diol] | – | – |
